Reference: patent US20110263539A1, “SHIP 1 MODULATOR COMPOUNDS” (THE UNIVERSITY OF BRITISH COLUMBIA, priority 2006, published 2011)

What was measured:
[1] = system: neutrophil myeloperoxidase (MPO) activity; assay: Mouse acute cutaneous anaphylaxis model (Assay 5); format: in vivo, CD1 mice
Description: Assay 5) Mouse acute cutaneous anaphylaxis model. 6-8 week old CD1 mice
(§1) (University of British Columbia Animal Facility, Vancouver, BC) were sensitized to the hapten DNP by cutaneous application of 25 μL of 0.5% dinitrofluorobenzene (DNFB) (Sigma, Oakville, Ont) in acetone to the shaved abdomen of mice for two consecutive days. 24 hrs later, test substances (dissolved in 10 μL of 1:2 DMSO:MeOH) were painted on the right ear while the left ear received vehicle control. 30 min after drug application, DNFB was applied to both ears to induce mast cell degranulation. A 6 mm punch was taken from the ear and immediately frozen on dry ice for subsequent determination of neutrophil myeloperoxidase (MPO) activity.
as §1, with “Mouse acute cutaneous anaphylaxis model. 6-8 week old CD1 mice (University” for “(University”, “activity. Compound 100's ability to inhibit cutaneous anaphylaxis was assessed.” for “activity.”
Anaphylactic or allergic responses are mediated by allergen-induced degranulation of pre-sensitized mast cells. The mouse ear edema/cutaneous anaphylaxis model involves pre-sensitization of mice with the haptenizing agent dinitrofluorobenzene (DNFB). One week later the allergic reaction is elicited by painting DNFB onto the ears of the mice. The efficacy of potential anti-inflammatory compounds is tested by topical application of the test substance to one ear and comparing the resulting ear edema or inflammation of the two ears.

plasma TNFα = assay: Mouse endotoxemia model (Assay 6); format: in vivo, C57B16 mice; conditions: oral administration 30 min prior to LPS, 2 hrs
Description: Assay 6) Mouse endotoxemia model. 6-8 week old C57B16 mice (VCHRI Mammalian Model of Human Disease Core Facility, Vancouver, BC) were orally administered the test compound 30 min prior to an IP injection of 2 mg/kg of LPS (E. Coli serotype 0111:B4, Sigma, Oakville, Ont). Blood was drawn 2 hrs later for determination of plasma TNFα by ELISA.
Mouse endotoxemia model. 6-8 week old C57B16 mice (VCHRI Mammalian Model of Human Disease Core Facility, Vancouver, BC) were orally administered the indicated dose of AQX-016A, Compound 100 or dexamethasone or carrier 30 min prior to an IP injection of 2 mg/kg of LPS (E. Coli serotype 0111:B4, Sigma, Oakville, Ont). Blood was drawn 2 hrs later for determination of plasma TNFα by ELISA. Results are representative of 3 independent experiments. (FIGS. 7D and 9)
AQX-016A's ability to provide protection by inhibiting inflammatory reactions in vivo was assessed in mouse models. The mouse model of endotoxic shock involves intraperitoneal (IP) injection of bacterial LPS and measurement of serum TNFα levels 2 hrs later. We orally administered AQX-016A or the steroidal drug dexamethasone to mice 30 min prior to the LPS challenge.

ΔC2 SHIP = assay: SHIP enzyme assay with C2 domain deleted SHIP; format: biochemical; conditions: PI-3,4-P2 20 μM or Compound 100 3 μM, 30 μM IP4
Text: A His6 tagged SHIP ΔC2 domain deletion mutant (deleting residues 725 to 863) in the mammalian expression vector pME18S was generated by a standard PCR-based methodology. An N-terminal His6 C2 domain construct was also generated by PCR inserted into the pET28C bacterial expression vector using EcoRI and NdeI restriction sites.
The allosteric regulation of enzymes has remained under-appreciated primarily because allosteric effectors are not easy to find. The molecular mechanism by which Compound 100 activated SHIP was investigated, first by performing classical enzyme kinetic analysis of its phosphatase activity. Activity measurements were performed with substrate concentrations from 10-100 μM.
The SHIP protein contains a C2 domain located at the carboxyterminal end of its phosphatase domain. […] SHIP lacking its the C2 domain (ΔC2 SHIP) was prepared.

wild-type SHIP = assay: Scintillation proximity assay, wild-type and ΔC2 SHIP; format: binding; conditions: [3H]-Compound 100, SPA beads
Description: Compound 100 was radiolabelled with tritium by GE Healthcare (Piscataway, N.J.) to a specific activity of 42 Ci/mmole. Copper chelate (His-Tag) YSi SPA Scintillation Beads (GE Healthcare, Piscataway, N.J.) were diluted in 0.25% BSA/TBS to 1.5 mg/mL and recombinant, His6-tagged protein added at the indicated concentrations: wild-type (1 μM), ΔC2 SHIP enzyme (1 pM) or C2 domain (10 nM). Protein was allowed to bind 1 h at 23° C., and 250 μg of beads were aliquoted per well of a 96-well plate. 5 μCi of [^3H]-Compound 100 was added per well, the plate gently agitated for 30 min and the amount of bead associated radioactivity quantified by counting in a Wallac BetaPlate plate scintillation counter.
Isolated recombinant, His6-tagged C2 domain was expressed and its PI-3,4-P2 binding ability was determined using protein lipid overlay assays. Purified C2 domain was incubated with membrane strips spotted with PI-3,4-P2 and bound protein detected using an anti-His6 antibody. As shown in FIG. 11C the C2 domain bound PI-3,4-P2 and this binding was inhibited by Compound 100, consistent with both Compound 100 and PI-3,4-P2 interacting with the C2 domain at a common binding site.

Cc1cc(O)cc2c1[C@]1(C)CCC3C(C)(C)CCC[C@]3(C)[C@H]1C2 (some centres unmarked) [Compound 100]
Assay Number 5: Mouse acute cutaneous anaphylaxis model ([1]; topical on ear, DNFB): +
allergen (DNFB)-induced inflammation ([1]; topically applied vs vehicle control-treated ear): dramatically inhibited
LPS-induced plasma/serum TNFα levels (plasma TNFα): efficiently inhibited
ΔC2 SHIP enzyme activity (ΔC2 SHIP): could not be enhanced
binding to wild-type SHIP vs SHIP lacking C2 domain (wild-type SHIP): bound to wild-type SHIP but not to SHIP lacking its C2 domain
